Earlier results on 4 compounds are cited in publication PMC2975871 (The FEBS journal, 2010).

Molecules are shown by their SMILES. In brackets after ≈: the same amount, converted by molar mass.

Consider `CC(C)(C)NC(=O)[C@@H]1C[C@@H]2CCCC[C@@H]2CN1C[C@@H](O)[C@H](Cc1ccccc1)NC(=O)[C@H](CC(N)=O)NC(=O)c1ccc2ccccc2n1` [SQV, saquinavir], for which the water solubility is 36 µg/mL (≈ 53.7 µM). The decreased inhibition in the series with PR with mutation I50V is 20 fold.
Consider `CC(C)CN(C[C@@H](O)[C@H](Cc1ccccc1)NC(=O)O[C@H]1CO[C@H]2OCC[C@H]21)S(=O)(=O)c1ccc(N)cc1` [DRV, darunavir], for which the “worse inhibition relative to wild type enzyme” value in the series with PR with mutation I50V was 9 fold.
As for `CC(C)(C)NC(=O)[C@@H]1CN(Cc2cccnc2)CCN1C[C@@H](O)C[C@@H](Cc1ccccc1)C(=O)N[C@H]1c2ccccc2C[C@H]1O` [IDV, indinavir], the decreased inhibition in the series with PR with mutation I50V is given as 50 fold.
Regarding `CC(C)CN(C[C@@H](O)[C@H](Cc1ccccc1)NC(=O)O[C@H]1CCOC1)S(=O)(=O)c1ccc(N)cc1` [amprenavir], the “increased IC50” value in the series with I54M mutation is on record as 6 fold.
